Assay results: ChEMBL document CHEMBL1201862, “PubChem BioAssay data set” (2004)
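Following 48 hours of exposure in 96-well plates, responses at five concentrations were used to interpolate endpoints linearly. GI50 is the concentration that inhibits growth by half.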 Activity calls are given as the source filed them. Rule as the data show it: active = GI50 up to about 1.1 µM and inactive = higher.

How the values were obtained:
Assay in all cases: growth of human tumour cells (NCI), 48 h
[1] = test system: SF-268
[2] = test system: HCC 2998
[3] = test system: UACC-62
[4] = test system: MDA-N
[5] = test system: COLO 205
[6] = test system: 786-0
[7] = test system: MDA-MB-231
[8] = test system: SF-539
[9] = test system: HT-29
[10] = test system: MCF7
[11] = test system: ACHN
[12] = test system: SNB-75
[13] = test system: OVCAR-8
[14] = test system: LOX IMVI
[15] = test system: EKVX
[16] = test system: A549
[17] = test system: NCI-H522
[18] = test system: NCI-H460
[19] = test system: Malme-3M
[20] = test system: A498

Row | SMILES | GI50 [1] | GI50 [2] | GI50 [3] | GI50 [4] | GI50 [5] | GI50 [6] | GI50 [7] | GI50 [8] | GI50 [9] | GI50 [10] | GI50 [11] | GI50 [12] | GI50 [13] | GI50 [14] | GI50 [15] | GI50 [16] | GI50 [17] | GI50 [18] | GI50 [19] | GI50 [20]
1 | CC(=O)N(C(C)=O)n1c(-c2ccccc2)n[nH]c1=O | > 100 µM (inactive) | > 100 µM (inactive) | > 100 µM (inactive) | > 100 µM (inactive) | > 100 µM (inactive) | > 100 µM (inactive) | > 100 µM (inactive) | > 100 µM (inactive) | > 100 µM (inactive) | > 100 µM (inactive) | > 100 µM (inactive) | > 100 µM (inactive) | > 100 µM (inactive) | > 100 µM (inactive) | > 100 µM (inactive) | > 100 µM (inactive) | > 100 µM (inactive) |  |  | 
2 | COC(=O)C1(CCCCl)CCCN1C(=O)OC(C)(C)C (stereo unspecified) | > 100 µM (inactive) | > 100 µM (inactive) | > 100 µM (inactive) | > 100 µM (inactive) | > 100 µM (inactive) | > 100 µM (inactive) | > 100 µM (inactive) |  | > 100 µM (inactive) | > 100 µM (inactive) | > 100 µM (inactive) | > 100 µM (inactive) |  | > 100 µM (inactive) | > 100 µM (inactive) | > 100 µM (inactive) |  | > 100 µM (inactive) |  | 
3 | N=c1oc2cc(O)ccc2cc1C(=O)NCc1ccccc1 | 23.1 µM (inactive) |  |  | 19.3 µM (inactive) | 12.4 µM (inactive) | 32.1 µM (inactive) | 24 µM (inactive) | 21.9 µM (inactive) | 18.8 µM (inactive) | 33.2 µM (inactive) | 14.5 µM (inactive) | 8.85 µM (inactive) | 27.4 µM (inactive) | 29.5 µM (inactive) | 32.8 µM (inactive) | 31.8 µM (inactive) | 16.3 µM (inactive) | 25.8 µM (inactive) | 21.7 µM (inactive) | 
4 | Cc1nc2ccc(Br)cc2c(=O)n1-c1nnc(C(C)(C)C)s1 | > 10 µM (inactive) | > 10 µM (inactive) | > 10 µM (inactive) | > 10 µM (inactive) | > 10 µM (inactive) | > 10 µM (inactive) | > 10 µM (inactive) | > 10 µM (inactive) | > 10 µM (inactive) | > 10 µM (inactive) | > 10 µM (inactive) | > 10 µM (inactive) | > 10 µM (inactive) | > 10 µM (inactive) | > 10 µM (inactive) | > 10 µM (inactive) | > 10 µM (inactive) | > 10 µM (inactive) |  | 
5 | Clc1nc(Nc2nc3ccccc3[nH]2)nc(Cl)c1Cc1ccccc1 | 49.4 µM (inactive) |  | 72.4 µM (inactive) | 66.4 µM (inactive) | > 100 µM (inactive) | 45.9 µM (inactive) | 30.7 µM (inactive) | 31.2 µM (inactive) | 54.1 µM (inactive) |  | 85.7 µM (inactive) | 17.9 µM (inactive) | > 100 µM (inactive) |  | > 100 µM (inactive) | > 100 µM (inactive) | 37 µM (inactive) | 89.1 µM (inactive) | > 100 µM (inactive) | > 100 µM (inactive)
6 | O=C(O)c1cc2ccccc2c(/N=N/c2ccc(S(=O)(=O)Nc3nccs3)cc2)c1O | > 100 µM (inactive) | > 100 µM (inactive) | > 100 µM (inactive) | > 100 µM (inactive) | > 100 µM (inactive) | > 100 µM (inactive) | > 100 µM (inactive) | > 100 µM (inactive) | > 100 µM (inactive) | > 100 µM (inactive) | > 100 µM (inactive) | > 100 µM (inactive) | > 100 µM (inactive) |  | > 100 µM (inactive) | > 100 µM (inactive) | > 100 µM (inactive) | > 100 µM (inactive) | > 100 µM (inactive) | 
7 | COc1cccc(C2CC(=O)c3cc(N4CCCC4)ccc3N2)c1 (stereo unspecified) | 0.0692 µM (active) | 0.0475 µM (active) | 0.0449 µM (active) | 0.00269 µM (active) | 0.0365 µM (active) | 0.0404 µM (active) | 0.0766 µM (active) | 0.0272 µM (active) | 0.0211 µM (active) | 0.398 µM (active) | 0.0832 µM (active) |  | 0.037 µM (active) | 0.0516 µM (active) | 0.27 µM (active) | 0.036 µM (active) | 0.0177 µM (active) | 0.0402 µM (active) |  | 
8 | CNC(=O)N(CCC#N)CCN(CCN(C(=O)NC)c1ccccc1)C(=O)NC |  | > 100 µM (inactive) | > 100 µM (inactive) | > 100 µM (inactive) | > 100 µM (inactive) | > 100 µM (inactive) | > 100 µM (inactive) | > 100 µM (inactive) | > 100 µM (inactive) | > 100 µM (inactive) | > 100 µM (inactive) | > 100 µM (inactive) | > 100 µM (inactive) | > 100 µM (inactive) | > 100 µM (inactive) | > 100 µM (inactive) | > 100 µM (inactive) | > 100 µM (inactive) | > 100 µM (inactive) | 
9 | CC(C)(C)OC(=O)[N+](=N)C(=O)C1CCC(=O)N1C(=O)OCc1ccccc1 (stereo unspecified) | > 100 µM (inactive) | > 100 µM (inactive) | > 100 µM (inactive) | > 100 µM (inactive) | > 100 µM (inactive) | > 100 µM (inactive) | > 100 µM (inactive) |  | > 100 µM (inactive) | > 100 µM (inactive) | > 100 µM (inactive) | > 100 µM (inactive) | > 100 µM (inactive) | > 100 µM (inactive) | > 100 µM (inactive) | > 100 µM (inactive) | > 100 µM (inactive) | > 100 µM (inactive) | > 100 µM (inactive) | 
10 | Cc1c(Cc2ccccc2)n(C(C)OCCN(OC(=O)Oc2ccccc2)C(=O)Oc2ccccc2)c(=O)[nH]c1=O (stereo unspecified) | 14.7 µM (inactive) | 17.3 µM (inactive) | 16.3 µM (inactive) | 19.3 µM (inactive) | 18.3 µM (inactive) | 18.3 µM (inactive) | 19.5 µM (inactive) | 19.1 µM (inactive) | 16.1 µM (inactive) | 23.4 µM (inactive) | 26.3 µM (inactive) | 1.61 µM (inactive) | 16.9 µM (inactive) |  | 14.4 µM (inactive) | 25.2 µM (inactive) | 14.5 µM (inactive) | 17.8 µM (inactive) |  | 
11 | NC[C@H]1Nc2ccccc2[C@@H](O)C1O (stereo partly specified) | > 100 µM (inactive) | > 100 µM (inactive) | > 100 µM (inactive) | > 100 µM (inactive) | > 100 µM (inactive) | > 100 µM (inactive) | > 100 µM (inactive) | > 100 µM (inactive) | > 100 µM (inactive) | > 100 µM (inactive) | > 100 µM (inactive) | > 100 µM (inactive) | > 100 µM (inactive) | > 100 µM (inactive) | > 100 µM (inactive) | > 100 µM (inactive) |  | > 100 µM (inactive) | > 100 µM (inactive) | 
12 | CC1(C)CC2C(/C1=N/O)C1(C)CCCC2(C)C1O (stereo unspecified) | > 100 µM (inactive) |  | > 100 µM (inactive) | > 100 µM (inactive) | > 100 µM (inactive) | > 100 µM (inactive) |  |  | > 100 µM (inactive) | > 100 µM (inactive) | > 100 µM (inactive) | > 100 µM (inactive) | > 100 µM (inactive) | > 100 µM (inactive) | > 100 µM (inactive) | > 100 µM (inactive) | > 100 µM (inactive) | > 100 µM (inactive) | > 100 µM (inactive) | 
